These results are taken from patent publication US7737123B2, “Multidrug resistant anticancer anthracyclines” (The Ohio State University Research Foundation, priority 2005, dated 2010).

Like-named read-outs stand apart in the source and are kept apart here. Some results are limits rather than exact numbers.

The subject of data set [1] is doxorubicin-resistant K562/Dox cells. Briefly: Cytotoxicity in doxorubicin-resistant K562/Dox cells by MTS assay. In kind it is cell-based. Particulars: for IC50: Homo sapiens, drug-resistant K562/Dox, MTS assay, 72 hours; for DRI (drug resistance index): ratio of IC50 in drug-resistant cells over IC50 in drug-sensitive cells. As to the method: The drug-resistant K562/Dox cell line was induced by doxorubicin treatment. The cell line was cultured in 0.1 μM doxorubicin one week/per month, followed by 10 days culture without doxrubicin before experiment. This is to maintain similar high levels of P-gp expression in each experiment. […] Then 20 μL MTS/PMS assay solution was added to each well and the absorbance was recorded. The cell survival was calculated as percentage of cell control group without treatment. […] The IC50 values were calculated by WinNonlin 4.1 (Pharsight) from the dose-response curves of percentage of cell growth with the model: E=Emax−(Emax−E0)×[C/(C+EC50)]

In data set [2] the test system is K562/Dox. In kind it is cell-based.
The subject of data set [3] is drug-resistant leukemia K562/Dox xenograft. As to the kind of experiment: K562/Dox leukemia xenograft mouse model. Particulars: for tumor growth inhibition (in words): 5 or 10 mg/kg intraperitoneally twice per week for three weeks, one week after dose. The method, then:
In this animal model, 10^7 drug-resistant leukemia K562/Dox was injected subcutaneously into nude mice. […] The tumor volume was measured every three days.

Data set [4] has as its system leukemia cells K562. Briefly: Cytotoxicity in drug-sensitive leukemia K562 cells by MTS assay. It is filed as cell-based. Particulars: Homo sapiens. As to the method:
The drug resistance index (DRI, ratio of IC50 in drug-resistant cells over IC50 in drug-sensitive cells) is a good indicator of drug's ability to overcome resistance.
The anticancer activities of Compounds 1-6 were examined in leukemia cells K562 and doxorubicin-resistant K562/Dox cells by MTS assay. The drug-resistant K562/Dox cell line was induced by doxorubicin treatment. The cell line was cultured in 0.1 μM doxorubicin one week/per month, followed by 10 days culture without doxrubicin before experiment. This is to maintain similar high levels of P-gp expression in each experiment. In drug-resistant K562 cells, MDR1 mRNA was induced by 600-fold higher than drug-sensitive K562 cells as measured by real-time PCR (data not shown). […] Then 20 μL MTS/PMS assay solution was added to each well and the absorbance was recorded. The cell survival was calculated as percentage of cell control group without treatment. The anticancer activities are summarized in Table 2 and graphically illustrated in FIG. 5. The IC50 values were calculated by WinNonlin 4.1 (Pharsight) from the dose-response curves of percentage of cell growth with the model: E=Emax−(Emax−E0)×[C/(C+EC50)]

The target in data set [5] is T1, P-gp (Homo sapiens, UniProt P08183).
T1 construct: endogenous in cells; host or cells: K562/Dox (doxorubicin-induced drug-resistant K562 leukemia cells)
T1 sequence (P08183 whole entry): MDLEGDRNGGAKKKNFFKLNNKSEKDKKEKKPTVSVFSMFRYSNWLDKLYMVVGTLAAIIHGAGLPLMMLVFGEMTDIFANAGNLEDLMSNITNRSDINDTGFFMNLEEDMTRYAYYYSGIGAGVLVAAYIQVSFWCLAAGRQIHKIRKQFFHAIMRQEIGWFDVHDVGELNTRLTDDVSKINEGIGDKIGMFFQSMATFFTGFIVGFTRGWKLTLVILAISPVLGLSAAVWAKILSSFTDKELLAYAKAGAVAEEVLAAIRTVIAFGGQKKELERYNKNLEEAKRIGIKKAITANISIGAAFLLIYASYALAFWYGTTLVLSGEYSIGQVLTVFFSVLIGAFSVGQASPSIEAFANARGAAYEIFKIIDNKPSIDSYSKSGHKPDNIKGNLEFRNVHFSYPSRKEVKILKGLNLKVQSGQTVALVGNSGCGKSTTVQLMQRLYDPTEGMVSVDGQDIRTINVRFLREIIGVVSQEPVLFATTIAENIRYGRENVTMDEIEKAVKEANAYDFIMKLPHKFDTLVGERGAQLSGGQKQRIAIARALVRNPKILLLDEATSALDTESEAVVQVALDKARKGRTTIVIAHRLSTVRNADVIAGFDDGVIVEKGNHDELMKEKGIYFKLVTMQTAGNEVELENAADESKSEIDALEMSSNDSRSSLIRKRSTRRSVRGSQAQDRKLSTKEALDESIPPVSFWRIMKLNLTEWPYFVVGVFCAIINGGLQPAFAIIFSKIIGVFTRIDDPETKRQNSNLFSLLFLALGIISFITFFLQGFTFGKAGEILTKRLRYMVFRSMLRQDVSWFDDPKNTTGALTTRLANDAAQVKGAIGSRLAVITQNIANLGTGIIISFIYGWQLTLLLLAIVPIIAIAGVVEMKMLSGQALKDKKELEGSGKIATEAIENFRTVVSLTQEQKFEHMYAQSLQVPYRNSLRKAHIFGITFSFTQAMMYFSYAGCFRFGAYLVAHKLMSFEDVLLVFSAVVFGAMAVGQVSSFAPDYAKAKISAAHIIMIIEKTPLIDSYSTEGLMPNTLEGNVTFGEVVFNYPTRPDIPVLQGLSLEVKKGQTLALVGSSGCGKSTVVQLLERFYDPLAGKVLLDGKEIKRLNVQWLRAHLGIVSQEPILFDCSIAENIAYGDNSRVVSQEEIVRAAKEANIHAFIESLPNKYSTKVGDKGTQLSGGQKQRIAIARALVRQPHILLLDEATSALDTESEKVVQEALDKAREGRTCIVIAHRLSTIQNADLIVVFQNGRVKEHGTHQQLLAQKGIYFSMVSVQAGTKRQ
As to the kind of experiment: P-gp export (uptake and efflux by FACS) in K562/Dox cells with or without CsA. Particulars: CsA 5 μM, 30 min incubation. It is filed as cell-based.

Data set [6] relates to colon cancer cell line SW620 cells. As to the kind of experiment: Cytotoxicity in colon cancer cell line SW620 with MTS assay. It is filed as cell-based. The following applies: for IC50: read-out: IC50 in SW620. The method, then:
The cytotoxicity of compounds DNR-1-DNR-6 prepared in this manner was examined in colon cancer cell line SW620 cells with MTS assay. […] Then 20 μL MTS/PMS assay solution was added to each well and the absorbance was recorded. The cell survival was calculated as percentage of cell control group without treatment. The IC50 of all these compounds against colon cancer cell line SW620 are summarized in Table 1 and graphically illustrated in FIGS. 1A and 1B. These IC50 values were calculated by WinNonlin 4.1 (Pharsight) from the dose-response curves of percentage of cell growth with the model: E=Emax−(Emax−E0)×[C/(C+EC50)].

Setting [7] is: 10 mg/kg twice per week for three weeks.
Setting [8] is: drug-sensitive K562, MTS assay, 72 hours, read-out: IC50 in K562.
Where [9] appears, read: drug-sensitive K562, values given in text in nM, read-out: IC50 against K562.

For the compound `COc1cccc2c1C(=O)c1c(O)c3c(c(O)c1C2=O)C[C@@](O)(C(C)=O)C[C@@H]3OC1CC(N=[N+]=[N-])C(O)C(C)O1` (stereo partly drawn) [ADNR, 3′-azido-deamino-daunorubicin], in data set [1], the “fold more active than DNR against drug-resistant K562 cells” value is listed as “at least 5 fold”, the IC50 amounted to 1000 nM and the “DRI (drug resistance index)” value worked out at 13. Moreover, the “DRI (drug resistance index)” value in data set [1] (listed as 8) worked out at 13.3. For the same compound, the “fold lower DRI than that of DNR” value in data set [1] (versus DNR) came to 25 fold. For the same compound, the “cell killing effect, drug alone” value in data set [2] (1 μM, K562/Dox, without CsA) was “more than 50%”. In data set [2] (drug 1 μM plus CsA 5 μM, K562/Dox), the “cell killing effect in combination with CsA” value is “did not change the cell killing effects”. For the same compound, in data set [3] (5 mg/kg), the “fold higher maximum growth inhibition rate than DNR” value is 2.5 fold. Besides, in data set [3] (setting [7]), the body weight decrease result is given as “did not show any significant body weight change” and the “survival after 50 days” value is recorded as 100%. Further, the “tumor growth inhibition (in words)” value in data set [3] is recorded as “significantly inhibited tumor growth”. For the same compound, the IC50 in data set [4] (setting [8]) came out at 75 nM.
Consider `COc1cccc2c1C(=O)c1c(O)c3c(c(O)c1C2=O)C[C@@](O)(C(C)=O)C[C@@H]3OC1CC(N=[N+]=[N-])C(OC2CCC(O)C(C)O2)C(C)O1` (stereo partly drawn) [Compound 1], for which the “DRI (drug resistance index)” value in data set [1] amounted to 2.45. The IC50 is 787 nM in data set [4] (setting [8]) and 200 to 1100 nM in data set [4] (setting [9]).
As for `COc1cccc2c1C(=O)c1c(O)c3c(c(O)c1C2=O)C[C@@](O)(C(C)=O)C[C@@H]3OC1CC(N=[N+]=[N-])C(OC2CC(O)C(O)C(C)O2)C(C)O1` (stereo partly drawn) [Compound 2], the IC50 in data set [1] (K562, 72 h) is 5440 nM; in data set [4] (setting [8]), 287 nM; in data set [4] (setting [9]), 200 to 1100 nM. Further, the “DRI (drug resistance index)” value in data set [1] was determined as 18.94.
Regarding `COc1cccc2c1C(=O)c1c(O)c3c(c(O)c1C2=O)C[C@@](O)(C(C)=O)C[C@@H]3OC1CC(N=[N+]=[N-])C(OC2CC(C)(OC)C(O)C(C)O2)C(C)O1` (stereo partly drawn) [Compound 4], the IC50 in data set [1] (K562, 72 h) is 12100 nM; in data set [4] (setting [8]) it was 225 nM; in data set [4] (setting [9]), 200 to 1100 nM. Also, the “DRI (drug resistance index)” value in data set [1] stood at 53.64.
In the case of `COc1cccc2c1C(=O)c1c(O)c3c(c(O)c1C2=O)C[C@@](O)(C(C)=O)C[C@@H]3OC1CC(N=[N+]=[N-])C(OC2CC(N=[N+]=[N-])C(O)C(C)O2)C(C)O1` (stereo partly drawn) [Compound 6], the IC50 in data set [1] (K562, 72 h) stood at 6390 nM; in data set [4] (setting [8]), 1130 nM. Moreover, the “DRI (drug resistance index)” value in data set [1] turned out to be 5.64.
In the case of `COc1cccc2c1C(=O)c1c(O)c3c(c(O)c1C2=O)C[C@@](O)(C(C)=O)C[C@@H]3O[C@H]1C[C@H](N)[C@H](O)[C@H](C)O1` [DNR, daunorubicin, reference compound], the concentration for half-maximal inhibition (IC50) in data set [1] (K562, 72 h) is over 5000 nM; in data set [4] (setting [8]), 15 nM; in data set [4] (setting [9]), 15 nM; in data set [6] (Homo sapiens, SW-620, 72 h), 33.4 nM. The “cell killing effect in combination with CsA” value in data set [2] is on record as “more than 70%”. Further, the “cell killing effect, drug alone” value in data set [2] is reported as 30%. In addition, the “effect of P-gp inhibitor (CsA) on retention of drug in K562/Dox cells, uptake and efflux phases” value in data set [5] is “significantly inhibited the drug efflux and increased drug accumulation”. The “time by which 50% mice died” value in data set [3] (10 mg/kg) is under 20 days. The body weight decrease result in data set [3] (setting [7]) is recorded as “more than 70%”. The “time by which all mice died” value in data set [3] (10 mg/kg, due to both tumor growth and drug toxicity) was under 30 days. Moreover, the “tumor growth inhibition (in words)” value in data set [3] is given as “significantly inhibited tumor growth”.
As for `COc1cccc2c1C(=O)c1c(O)c3c(c(O)c1C2=O)C[C@@](O)(C(C)=O)C[C@@H]3OC1OC(C)C(O)C(O)C1O` (stereo partly drawn) [DNR-1], the IC50 in data set [6] (Homo sapiens, SW-620, 72 h) came to 265 nM.
On the same count and under the same terms, to `COc1cccc2c1C(=O)c1c(O)c3c(c(O)c1C2=O)C[C@@](O)(C(C)=O)C[C@@H]3OC1CC(C)(OC)C(O)C(C)O1` (stereo partly drawn) [DNR-3] belongs over 1000 nM.
On the same count and under the same terms, the result for `COc1cccc2c1C(=O)c1c(O)c3c(c(O)c1C2=O)C[C@@](O)(C(C)=O)C[C@@H]3OC1CC(OC)C(O)C(C)O1` (stereo partly drawn) [DNR-4] reads 104 nM; that for `COc1cccc2c1C(=O)c1c(O)c3c(c(O)c1C2=O)C[C@@](O)(C(C)=O)C[C@@H]3OC1CCC(O)C(C)O1` (stereo partly drawn) [DNR-5], 350 nM.
For the compound `COc1cccc2c1C(=O)c1c(O)c3c(c(O)c1C2=O)C[C@@](O)(C(C)=O)C[C@@H]3OC1CCC(N=[N+]=[N-])C(C)O1` (stereo partly drawn) [DNR-6], in data set [6] (FIG. 1B), the “cytotoxicity in SW620 (in words)” value is reported as “lost its cytotoxicity”. In addition, in data set [6] (Homo sapiens, SW-620, 72 h), the IC50 was over 1000 nM.
Take `COc1cccc2c1C(=O)c1c(O)c3c(c(O)c1C2=O)C[C@@](O)(C(C)=O)C[C@@H]3O` [DNR-A, reference compound]: the “fold lower cytotoxicity than compounds DNR-1-DNR-6” value in data set [6] is reported as 70-100 fold. Moreover, in data set [6] (MTS assay, 72 hours), the IC50 is over 2000 nM.
